Assay results taken from patent US8476434B2, “Protein kinase modulators and method of use” (Amgen Inc., priority 2004, dated 2013).

target: T1, LCK KD GST (225-509) (Homo sapiens, UniProt P06239); assay: LCK Homogenous Time Resolved Fluorescent (HTRF) kinase assay; format: biochemical
T1 construct: LCK KD GST (225-509); GST
Procedure: The LCK HTRF assay begins with LCK in the presence of ATP phosphorylating the biotinylated peptide Gastrin. The reaction incubates for 90 min. To quench the assay detection reagents are added which both stop the reaction by diluting out the enzyme and chelating the metals due to the presence of EDTA. Once the detection reagents are added the assay incubates for 30 min to allow for equilibration of the detection reagents.
Buffer conditions are as follows: 50 mM HEPES pH 7.5, 50 mM NaCl, 20 mM MgCl, 5 mM MnCl, 2 mM DTT, 0.05% BSA.
The assay is quenched and stopped with 160 μL of detection reagent. Detection reagents are as follows: Buffer made of 50 mM Tris, pH 7.5, 100 mM NaCl, 3 mM EDTA, 0.05% BSA, 0.1% Tween20.
The assay plate is read in either a Discovery or a RubyStar.

T1 sequence (P06239 225-509): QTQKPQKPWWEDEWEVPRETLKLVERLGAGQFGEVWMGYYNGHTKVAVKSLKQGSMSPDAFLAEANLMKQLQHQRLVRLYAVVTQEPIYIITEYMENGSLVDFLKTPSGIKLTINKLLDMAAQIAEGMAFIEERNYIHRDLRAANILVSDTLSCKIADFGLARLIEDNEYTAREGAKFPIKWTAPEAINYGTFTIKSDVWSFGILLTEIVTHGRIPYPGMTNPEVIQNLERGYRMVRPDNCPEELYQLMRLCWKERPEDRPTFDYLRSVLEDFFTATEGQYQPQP

IC50, < 1000 nM:
CNc1nccc(-c2cccnc2Oc2cc(C(=O)NCc3cccc(C(F)(F)F)c3)ccc2C)n1 [4-methyl-3-((3-(2-(methylamino)-4-pyrimidinyl)-2-pyridinyl)oxy)-N-((3-(trifluoromethyl)phenyl)methyl)benzamide], CNc1nccc(-c2cccnc2Oc2cc(C(=O)Nc3cc(C(F)(F)F)ccc3N3CCCCC3)ccc2C)n1, CNc1nccc(-c2cccnc2Oc2ccc(NC(=O)Nc3cc(C(F)(F)F)ccc3CN3CCN(C)CC3)cc2C)n1 [N-(3-methyl-4-((3-(2-(methylamino)-4-pyrimidinyl)-2-pyridinyl)oxy)phenyl)-N′-(2-((4-methyl-1-piperazinyl)methyl)-5-(trifluoromethyl)phenyl)urea], CNc1nccc(-c2cc(N3CCN(C)CC3)cnc2Oc2cc(C(=O)Nc3cccc(C(C)C)c3)ccc2C)n1 [4-methyl-3-((3-(2-(methylamino)-4-pyrimidinyl)-5-(4-methyl-1-piperazinyl)-2-pyridinyl)oxy)-N-(3-(1-methylethyl)phenyl)benzamide], C#Cc1ccc(N(C)CCCN(C)C)c(NC(=O)c2cc(Oc3ncccc3-c3ccnc(NC)n3)ccc2F)c1 [N-(2-((3-(dimethylamino)propyl)(methyl)amino)-5-ethynylphenyl)-2-fluoro-5-((3-(2-(methylamino)-4-pyrimidinyl)-2-pyridinyl)oxy)benzamide], CNc1nccc(-c2cccnc2Oc2ccc(F)c(C(=O)Nc3cccc(C(C)C)c3)c2)n1 [2-fluoro-5-((3-(2-(methylamino)-4-pyrimidinyl)-2-pyridinyl)oxy)-N-(3-(1-methylethyl)phenyl)benzamide], CNc1nccc(-c2cccnc2Oc2ccc(NC(=O)Nc3cc(Cl)ccc3N(C)[C@@H]3CCN(C)C3)cc2C)n1 [N-(5-chloro-2-(methyl((3R)-1-methyl-3-pyrrolidinyl)amino)phenyl)-N′-(3-methyl-4-((3-(2-(methylamino)-4-pyrimidinyl)-2-pyridinyl)oxy)phenyl)urea], CNc1ncnc(-c2cccnc2Oc2cccc(NC(=O)c3cccc(C(C)C)c3)c2)n1 [N-(3-((3-(4-(methylamino)-1,3,5-triazin-2-yl)-2-pyridinyl)oxy)phenyl)-3-(1-methylethyl)benzamide], CNc1nccc(-c2cccnc2Oc2cc(NC(=O)c3cc(C(C)(C)C)ccc3OC)ccc2C)n1 [5-(1,1-dimethylethyl)-N-(4-methyl-3-((3-(2-(methylamino)-4-pyrimidinyl)-2-pyridinyl)oxy)phenyl)-2-(methyloxy)benzamide], CNc1nccc(-c2cccnc2Oc2ccc(F)c(C(=O)Nc3cc(C(F)(F)F)ccc3N(C)C3CCN(C)C3)c2)n1 (stereo not drawn) [2-fluoro-5-((3-(2-(methylamino)-4-pyrimidinyl)-2-pyridinyl)oxy)-N-(2-(methyl(1-methyl-3-pyrrolidinyl)amino)-5-(trifluoromethyl)phenyl)benzamide], CNc1ncnc(-c2cccnc2Oc2ccc(F)c(C(=O)Nc3cc(C(F)(F)F)ccc3N(C)CCCN(C)C)c2)n1 [N-(2-((3-(dimethylamino)propyl)(methyl)amino)-5-(trifluoromethyl)phenyl)-2-fluoro-5-((3-(4-(methylamino)-1,3,5-triazin-2-yl)-2-pyridinyl)oxy)benzamide], CNc1nccc(-c2cccnc2Oc2ccc(NC(=O)Nc3cccc(Cl)c3)cc2C)n1 [N-(3-chlorophenyl)-N′-(3-methyl-4-((3-(2-(methylamino)-4-pyrimidinyl)-2-pyridinyl)oxy)phenyl)urea], COc1ccc(C(F)(F)F)cc1NC(=O)c1ccc(C)c(Oc2ncccc2-c2ccncn2)c1 [4-methyl-N-(2-(methyloxy)-5-(trifluoromethyl)phenyl)-3-((3-(4-pyrimidinyl)-2-pyridinyl)oxy)benzamide], CNc1ncnc(-c2cccnc2Oc2ccc(F)c(C(=O)Nc3cccc(C(C)(C)C)c3)c2)n1 [N-(3-(1,1-dimethylethyl)phenyl)-2-fluoro-5-((3-(4-(methylamino)-1,3,5-triazin-2-yl)-2-pyridinyl)oxy)benzamide], CC(C)c1cccc(NC(=O)c2cccc(Nc3ncccc3-c3ncnc(N)n3)c2)c1 [3-((3-(4-amino-1,3,5-triazin-2-yl)-2-pyridinyl)amino)-N-(3-(1-methylethyl)phenyl)benzamide], CNc1nccc(-c2cccnc2Oc2ccc(NC(=O)Nc3cc(C4CCN(C)CC4)cc(C(F)(F)F)c3)cc2C)n1 [N-(3-methyl-4-((3-(2-(methylamino)-4-pyrimidinyl)-2-pyridinyl)oxy)phenyl)-N′-(3-(1-methyl-4-piperidinyl)-5-(trifluoromethyl)phenyl)urea], CNc1ncnc(-c2cccnc2Oc2cc(C(=O)Nc3cc(C(F)(F)F)ccc3N3CCCCC3)ccc2C)n1 [4-methyl-3-((3-(4-(methylamino)-1,3,5-triazin-2-yl)-2-pyridinyl)oxy)-N-(2-(1-piperidinyl)-5-(trifluoromethyl)phenyl)benzamide], Cc1ccc(C(=O)Nc2cccc(Cl)c2)cc1Nc1ncccc1-c1ccncn1 [N-(3-chlorophenyl)-4-methyl-3-((3-(4-pyrimidinyl)-2-pyridinyl)amino)benzamide], CNc1nccc(-c2cccnc2Oc2ccc(NC(=O)Nc3cc(F)cc(C(F)(F)F)c3)cc2C)n1 [N-(3-fluoro-5-(trifluoromethyl)phenyl)-N′-(3-methyl-4-((3-(2-(methylamino)-4-pyrimidinyl)-2-pyridinyl)oxy)phenyl)urea], COc1ccc(C2CCCCC2)cc1NC(=O)c1ccc(C)c(Oc2ncccc2-c2ncnc(NCCCCN(C)C)n2)c1 [N-(5-cyclohexyl-2-(methyloxy)phenyl)-3-((3-(4-((4-(dimethylamino)butyl)amino)-1,3,5-triazin-2-yl)-2-pyridinyl)oxy)-4-methylbenzamide], CNc1nccc(-c2cccnc2Oc2cc(C(=O)Nc3cc(OC[C@H]4CCCN4C)cc(C(F)(F)F)c3)ccc2C)n1 [4-methyl-3-((3-(2-(methylamino)-4-pyrimidinyl)-2-pyridinyl)oxy)-N-(3-((((2R)-1-methyl-2-pyrrolidinyl)methyl)oxy)-5-(trifluoromethyl)phenyl)benzamide], CNc1nccc(-c2cccnc2Oc2ccc(NC(=O)Nc3cccc(F)c3)cc2C)n1 [N-(3-fluorophenyl)-N′-(3-methyl-4-((3-(2-(methylamino)-4-pyrimidinyl)-2-pyridinyl)oxy)phenyl)urea], Cc1ccc(C(=O)Nc2cc(C(F)(F)F)ccc2Cl)cc1Oc1ncccc1-c1ccncn1 [N-(2-chloro-5-(trifluoromethyl)phenyl)-4-methyl-3-((3-(4-pyrimidinyl)-2-pyridinyl)oxy)benzamide], CNc1ncnc(-c2cccnc2Oc2cc(F)cc(C(=O)Nc3cccc(C(C)C)c3)c2)n1 [3-fluoro-5-((3-(4-(methylamino)-1,3,5-triazin-2-yl)-2-pyridinyl)oxy)-N-(3-(1-methylethyl)phenyl)benzamide], CNc1ncnc(-c2cccnc2Oc2cc(C(=O)Nc3cccc(C(F)(F)F)c3)ccc2C)n1 [4-methyl-3-((3-(4-(methylamino)-1,3,5-triazin-2-yl)-2-pyridinyl)oxy)-N-(3-(trifluoromethyl)phenyl)benzamide], CNc1nccc(-c2cccnc2Oc2cccc(NC(=O)c3cc(Cl)cc(Cl)c3)c2)n1 [3,5-dichloro-N-(3-((3-(2-(methylamino)-4-pyrimidinyl)-2-pyridinyl)oxy)phenyl)benzamide], O=C(Nc1cccc(C(F)(F)F)c1)Nc1ccc(Oc2ncccc2-c2ccncn2)c2ccccc12 [N-(4-((3-(4-pyrimidinyl)-2-pyridinyl)oxy)-1-naphthalenyl)-N′-(3-(trifluoromethyl)phenyl)urea], CNc1nccc(-c2cccnc2Oc2ccc(NC(=O)Nc3cc(C)ccc3C)cc2C)n1 [N-(2,5-dimethylphenyl)-N′-(3-methyl-4-((3-(2-(methylamino)-4-pyrimidinyl)-2-pyridinyl)oxy)phenyl)urea], CNc1nccc(-c2cc(N3CCOCC3)cnc2Oc2cc(C(=O)Nc3cccc(C(C)C)c3)ccc2C)n1 [4-methyl-3-((3-(2-(methylamino)-4-pyrimidinyl)-5-(4-morpholinyl)-2-pyridinyl)oxy)-N-(3-(1-methylethyl)phenyl)benzamide], CNc1cc(-c2cccnc2Oc2cc(C(=O)Nc3cc(C4CCCCC4)ccc3OC)ccc2C)ccn1 [N-(5-cyclohexyl-2-(methyloxy)phenyl)-4-methyl-3-((2′-(methylamino)-3,4′-bipyridin-2-yl)oxy)benzamide], Cc1ccc(C(=O)Nc2cccc(C(C)C)c2)cc1Oc1ncccc1-c1ncnc(NCCCN2CCOCC2)n1 [4-methyl-N-(3-(1-methylethyl)phenyl)-3-((3-(4-((3-(4-morpholinyl)propyl)amino)-1,3,5-triazin-2-yl)-2-pyridinyl)oxy)benzamide], CNc1cc(-c2cccnc2Oc2cc(NC(=O)c3cccc(C(C)C)c3)cc(C(F)(F)F)c2)ccn1 [N-(3-((2′-(methylamino)-3,4′-bipyridin-2-yl)oxy)-5-(trifluoromethyl)phenyl)-3-(1-methylethyl)benzamide], CNc1nccc(-c2cccnc2Oc2cc(C(=O)Nc3cc(C4CCCCC4)ccc3OC)ccc2C)n1 [N-(5-cyclohexyl-2-(methyloxy)phenyl)-4-methyl-3-((3-(2-(methylamino)-4-pyrimidinyl)-2-pyridinyl)oxy)benzamide]
